Results published in PubChem BioAssay (NCI).
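Briefly, cells in 96-well plates were exposed to five compound concentrations for 48 h, and endpoints were estimated by linear interpolation. At the TGI there is no net growth.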

test system: MDA-MB-231 breast; test: NCI-60 cell line screen, 48 h

Row | SMILES | TGI [µM]
1 | CC(=O)ONC(C(=O)C(C)(C)C)C(=O)C(C)(C)C | > 100
2 | CC(=O)[C@@H](C)C(=O)N1C(=O)OC[C@@]12[C@@H]1CC[C@@H](C1)C2(C)C | > 100
3 | C/C(=N/NC(N)=S)c1ccc[nH]1 | > 100
4 | O=C1c2ccsc2C(=O)c2sc(CO)cc21 | 0.48
5 | COc1cc(-c2nc3ccccn3c2/N=C/c2cc(Br)cc(Br)c2O)ccc1O | 36.3
6 | CCCCCCCCCCCC(=O)OCC(C[As](=O)(O)O)OC(=O)CCCCCCCCCCC (stereo not given) | 16
7 | CO/C=C(/C(=O)OC)c1ccccc1COc1cccc(C(F)(F)F)c1 | 68.8
8 | C1=Cc2cc3c(c4nccc(c24)N1)OCO3 | > 64.7

test system: NCI/ADR-RES ovarian; test: NCI-60 cell line screen, 48 h

Row | SMILES | TGI [µM]
9 | CC(=O)ONC(C(=O)C(C)(C)C)C(=O)C(C)(C)C | > 100
10 | CC(=O)[C@@H](C)C(=O)N1C(=O)OC[C@@]12[C@@H]1CC[C@@H](C1)C2(C)C | > 100
11 | C/C(=N/NC(N)=S)c1ccc[nH]1 | > 100
12 | O=C1c2ccsc2C(=O)c2sc(CO)cc21 | 0.396
13 | COc1cc(-c2nc3ccccn3c2/N=C/c2cc(Br)cc(Br)c2O)ccc1O | 64.5
14 | CCCCCCCCCCCC(=O)OCC(C[As](=O)(O)O)OC(=O)CCCCCCCCCCC (stereo not given) | 44.5
15 | CO/C=C(/C(=O)OC)c1ccccc1COc1cccc(C(F)(F)F)c1 | > 100
16 | C1=Cc2cc3c(c4nccc(c24)N1)OCO3 | > 67.2

test system: OVCAR-4 ovarian; test: NCI-60 cell line screen, 48 h

Row | SMILES | TGI [µM]
17 | CC(=O)ONC(C(=O)C(C)(C)C)C(=O)C(C)(C)C | > 100
18 | CC(=O)[C@@H](C)C(=O)N1C(=O)OC[C@@]12[C@@H]1CC[C@@H](C1)C2(C)C | > 100
19 | C/C(=N/NC(N)=S)c1ccc[nH]1 | > 100
20 | O=C1c2ccsc2C(=O)c2sc(CO)cc21 | 0.31
21 | COc1cc(-c2nc3ccccn3c2/N=C/c2cc(Br)cc(Br)c2O)ccc1O | 61.3
22 | CCCCCCCCCCCC(=O)OCC(C[As](=O)(O)O)OC(=O)CCCCCCCCCCC (stereo not given) | 33.3
23 | CO/C=C(/C(=O)OC)c1ccccc1COc1cccc(C(F)(F)F)c1 | > 100
24 | C1=Cc2cc3c(c4nccc(c24)N1)OCO3 | > 46.6

test system: OVCAR-5 ovarian; test: NCI-60 cell line screen, 48 h

Row | SMILES | TGI [µM]
25 | CC(=O)ONC(C(=O)C(C)(C)C)C(=O)C(C)(C)C | > 100
26 | CC(=O)[C@@H](C)C(=O)N1C(=O)OC[C@@]12[C@@H]1CC[C@@H](C1)C2(C)C | > 100
27 | C/C(=N/NC(N)=S)c1ccc[nH]1 | > 100
28 | O=C1c2ccsc2C(=O)c2sc(CO)cc21 | 2.12
29 | COc1cc(-c2nc3ccccn3c2/N=C/c2cc(Br)cc(Br)c2O)ccc1O | > 100
30 | CCCCCCCCCCCC(=O)OCC(C[As](=O)(O)O)OC(=O)CCCCCCCCCCC (stereo not given) | 34.1
31 | CO/C=C(/C(=O)OC)c1ccccc1COc1cccc(C(F)(F)F)c1 | > 100
32 | C1=Cc2cc3c(c4nccc(c24)N1)OCO3 | > 69.4

test system: RXF 393 renal; test: NCI-60 cell line screen, 48 h

Row | SMILES | TGI [µM]
33 | CC(=O)ONC(C(=O)C(C)(C)C)C(=O)C(C)(C)C | > 100
34 | CC(=O)[C@@H](C)C(=O)N1C(=O)OC[C@@]12[C@@H]1CC[C@@H](C1)C2(C)C | > 100
35 | C/C(=N/NC(N)=S)c1ccc[nH]1 | > 100
36 | O=C1c2ccsc2C(=O)c2sc(CO)cc21 | 1.9
37 | COc1cc(-c2nc3ccccn3c2/N=C/c2cc(Br)cc(Br)c2O)ccc1O | > 100
38 | CCCCCCCCCCCC(=O)OCC(C[As](=O)(O)O)OC(=O)CCCCCCCCCCC (stereo not given) | 5.86
39 | CO/C=C(/C(=O)OC)c1ccccc1COc1cccc(C(F)(F)F)c1 | 78.3
40 | C1=Cc2cc3c(c4nccc(c24)N1)OCO3 | 5.64

test system: SK-MEL-28 melanoma; test: NCI-60 cell line screen, 48 h

Row | SMILES | TGI [µM]
41 | CC(=O)ONC(C(=O)C(C)(C)C)C(=O)C(C)(C)C | > 100
42 | CC(=O)[C@@H](C)C(=O)N1C(=O)OC[C@@]12[C@@H]1CC[C@@H](C1)C2(C)C | > 100
43 | C/C(=N/NC(N)=S)c1ccc[nH]1 | > 100
44 | O=C1c2ccsc2C(=O)c2sc(CO)cc21 | 0.0614
45 | COc1cc(-c2nc3ccccn3c2/N=C/c2cc(Br)cc(Br)c2O)ccc1O | 40.7
46 | CCCCCCCCCCCC(=O)OCC(C[As](=O)(O)O)OC(=O)CCCCCCCCCCC (stereo not given) | 10.1
47 | CO/C=C(/C(=O)OC)c1ccccc1COc1cccc(C(F)(F)F)c1 | > 100
48 | C1=Cc2cc3c(c4nccc(c24)N1)OCO3 | > 71

test system: SK-OV-3 ovarian; test: NCI-60 cell line screen, 48 h

Row | SMILES | TGI [µM]
49 | CC(=O)ONC(C(=O)C(C)(C)C)C(=O)C(C)(C)C | > 100
50 | CC(=O)[C@@H](C)C(=O)N1C(=O)OC[C@@]12[C@@H]1CC[C@@H](C1)C2(C)C | > 100
51 | C/C(=N/NC(N)=S)c1ccc[nH]1 | > 100
52 | O=C1c2ccsc2C(=O)c2sc(CO)cc21 | 2.97
53 | COc1cc(-c2nc3ccccn3c2/N=C/c2cc(Br)cc(Br)c2O)ccc1O | 59
54 | CCCCCCCCCCCC(=O)OCC(C[As](=O)(O)O)OC(=O)CCCCCCCCCCC (stereo not given) | 30.1
55 | CO/C=C(/C(=O)OC)c1ccccc1COc1cccc(C(F)(F)F)c1 | > 100
56 | C1=Cc2cc3c(c4nccc(c24)N1)OCO3 | 55.9

test system: SN12C renal; test: NCI-60 cell line screen, 48 h

Row | SMILES | TGI [µM]
57 | CC(=O)ONC(C(=O)C(C)(C)C)C(=O)C(C)(C)C | > 100
58 | CC(=O)[C@@H](C)C(=O)N1C(=O)OC[C@@]12[C@@H]1CC[C@@H](C1)C2(C)C | > 100
59 | C/C(=N/NC(N)=S)c1ccc[nH]1 | > 100
60 | O=C1c2ccsc2C(=O)c2sc(CO)cc21 | 0.0818
61 | COc1cc(-c2nc3ccccn3c2/N=C/c2cc(Br)cc(Br)c2O)ccc1O | 40.6
62 | CCCCCCCCCCCC(=O)OCC(C[As](=O)(O)O)OC(=O)CCCCCCCCCCC (stereo not given) | 8.27
63 | CO/C=C(/C(=O)OC)c1ccccc1COc1cccc(C(F)(F)F)c1 | > 100
64 | C1=Cc2cc3c(c4nccc(c24)N1)OCO3 | > 39.2

test system: SNB-75 CNS; test: NCI-60 cell line screen, 48 h

Row | SMILES | TGI [µM]
65 | CC(=O)ONC(C(=O)C(C)(C)C)C(=O)C(C)(C)C | > 100
66 | CC(=O)[C@@H](C)C(=O)N1C(=O)OC[C@@]12[C@@H]1CC[C@@H](C1)C2(C)C | > 100
67 | C/C(=N/NC(N)=S)c1ccc[nH]1 | > 100
68 | O=C1c2ccsc2C(=O)c2sc(CO)cc21 | 0.104
69 | COc1cc(-c2nc3ccccn3c2/N=C/c2cc(Br)cc(Br)c2O)ccc1O | 66.6
70 | CCCCCCCCCCCC(=O)OCC(C[As](=O)(O)O)OC(=O)CCCCCCCCCCC (stereo not given) | 21.1
71 | CO/C=C(/C(=O)OC)c1ccccc1COc1cccc(C(F)(F)F)c1 | 64.8
72 | C1=Cc2cc3c(c4nccc(c24)N1)OCO3 | 28.7

test system: U251 CNS; test: NCI-60 cell line screen, 48 h

Row | SMILES | TGI [µM]
73 | CC(=O)ONC(C(=O)C(C)(C)C)C(=O)C(C)(C)C | > 100
74 | CC(=O)[C@@H](C)C(=O)N1C(=O)OC[C@@]12[C@@H]1CC[C@@H](C1)C2(C)C | > 100
75 | C/C(=N/NC(N)=S)c1ccc[nH]1 | > 100
76 | O=C1c2ccsc2C(=O)c2sc(CO)cc21 | 0.421
77 | COc1cc(-c2nc3ccccn3c2/N=C/c2cc(Br)cc(Br)c2O)ccc1O | 31.9
78 | CCCCCCCCCCCC(=O)OCC(C[As](=O)(O)O)OC(=O)CCCCCCCCCCC (stereo not given) | 2.93
79 | CO/C=C(/C(=O)OC)c1ccccc1COc1cccc(C(F)(F)F)c1 | > 100
80 | C1=Cc2cc3c(c4nccc(c24)N1)OCO3 | > 100
